From patent EP0184738A2, “Imidazole derivatives, medicaments containing these compounds, and process for their preparation” (Dr. Karl Thomae GmbH, priority 1984, dated 1986)

What follows are molecules tested on despinalisierten Meerschweinchen (assay: Determination of the positive inotropic effect in despinalised guinea pigs). Conditions: 1 mg/kg i.v. (Vena jugularis), mean of 3 despinalised guinea pigs, left ventricular pressure.
Format: in vivo
Text: Bestimmung der positiv inotropen Wirkung an despinalisierten Meerschweinchen
Die Untersuchungen wurden an despinalisierten Meerschweinchen durchgeführt. Die Tiere wurden mit 50 % 02 + 50 % N2 beatmet. Der arterielle Blutdruck wurde in der rechten Arteria Carotis mit einem Bell and Howell Druckwandler (4-327-I) gemessen. Für die Erfassung der positiv inotropen Wirkung wurde mit einem Kathetertipmanometer (Millar PR-249) der Druck in dem linken Ventrikel (LV) gemessen. Mittels eines Differenzierers wurde LV-dp/dtmax gewonnen. Die zu untersuchenden Substanzen wurden in eine Vena jugularis injiziert. Als Lösungsdmittel diente 0,9 % NaCl+Polydiol 200 (1:1).
Jede Substanz wurde an 3 Meerschweinchen überprüft. Die Dosen waren 0,1 - 3 mg/kg i.v.. Die nachfolgende Tabelle enthält die Mittelwerte bei 1 mg/kg i.v..
Die neuen Verbindungen sind gut verträglich, so konnte bei der Untersuchung der Substanzen A bis D bis zu einer Dosis von 3 mg/kg i.v. keinerlei herztoxische Wirkungen bzw. Kreislaufschäden beobachtet werden.

Q: For CCCOc1cc2ccccc2cc1-c1nc2cnc(Cl)nc2[nH]1 [Substanz D, 2-Chlor-8-(3-n-propoxy-naphth-2-yl)-purin], which “Zunahme in LV-dp/dtmax” value is on record?
A: 27%

Q: With O=c1ccc2[nH]c(-c3cc4ccccc4cc3Cl)nc2[nH]1 [Substanz B, 2-(3-Chlor-naphth-2-yl)-lH-imidazo[4,5-b]pyridin-5-on] as the molecule, how does the “Zunahme in LV-dp/dtmax” value read?
A: 30%

Q: With O=c1[nH][nH]cc2nc(-c3ccc4ccccc4c3)nc1-2 [Substanz A, 2-(Naphth-2-yl)-5H-imidazo[4,5-d]pyridazin-4-on] as the molecule, how does the “Zunahme in LV-dp/dtmax” value read?
A: 28%

Q: With COc1ncc2[nH]c(-c3ccc4ccccc4c3)nc2n1 [Substanz C, 2-Methoxy-8-(naphth-2-yl)-purin] as the molecule, how does the “Zunahme in LV-dp/dtmax” value read?
A: 33%
